Results taken from ChEMBL document CHEMBL6120996, “Discovery and optimization of 1,2,4-triazole derivatives as novel ferroptosis inhibitors” (Eur J Med Chem, 2025).
Blank lines part the entries; values can stand above or below the compound they belong to. Activity calls are given as the source filed them. The calls are words filed in the database; no cut-off is given here.

What was measured:
786-0 [1] = experiment: Inhibition of RSL3-induced ferroptosis in human 786-0 cells assessed as cell viability incubated for 24 hrs by CellTiter-LumiTM assay; assay type: functional, cell-based; conditions: 786-0, 24 h
786-0 [2] = experiment: Inhibition of RSL3-induced ferroptosis in human 786-0 cells assessed as cell protection by assessing cell morphology at 1 uM incubated for 24 hrs; assay type: functional, cell-based
HT-1080 = experiment: Anti-ferroptotic activity in human GPX4 knockout HT-1080 cells assessed as cell viability at 1 uM incubated for 24 hrs by CellTiter-LumiTM plus luminescent cell viability assay; assay type: functional, cell-based
786-0 [3] = experiment: Inhibition of RSL3-induced ferroptosis in human 786-0 cells assessed as cell viability by assessing cell morphology incubated for 24 hrs by CellTiter-LumiTM plus luminescent cell viability assay; assay type: functional, cell-based; conditions: 786-0, 24 h
[4] = Inhibition of erastin induced ferroptosis in human 786-0 cells assessed as cell viability incubated for 24 hrs by CellTiter-LumiTM assay; assay type: functional, cell-based; conditions: 786-0, 24 h
[5] = Inhibition of RSL3 induced ferroptosis in H9c2 cells assessed as cell viability incubated for 24 hrs by CellTiter-LumiTM assay; assay type: functional, cell-based; conditions: Rattus norvegicus, H9c2, 24 h
[6] = Inhibition of RSL3 induced ferroptosis in human HT-1080 cells assessed as cell viability incubated for 24 hrs by CellTiter-LumiTM assay; assay type: functional, cell-based; conditions: HT-1080, 24 h
[7] = Inhibition of RSL3 induced ferroptosis in human SK-HEP1 cells assessed as cell viability incubated for 24 hrs by CellTiter-LumiTM assay; assay type: functional, cell-based; conditions: SK-HEP1, 24 h
[8] = Inhibition of RSL3 induced ferroptosis in human MHCC97H cells assessed as cell viability incubated for 24 hrs by CellTiter-LumiTM assay; assay type: functional, cell-based
786-0 [9] = experiment: Inhibition of STS induced apoptosis in human 786-0 cells assessed as cell viability at 1 uM incubated for 24 hrs by CellTiter-LumiTM assay; assay type: functional, cell-based
786-0 [10] = experiment: Inhibition of H2O2 induced necrosis in human 786-0 cells assessed as cell viability at 1 uM incubated for 24 hrs by CellTiter-LumiTM assay; assay type: functional, cell-based
786-0 [11] = experiment: Metal chelating activity assessed as Fe2+ chelation in human 786-0 cells assessed as intracellular ferrous ion level at 1 uM by FerroOrange fluorescent probe based assay; assay type: cell-based
786-0 [12] = experiment: Inhibition of RSL3 induced ferroptosis in human 786-0 cells assessed as cell viability in presence of iFSP1 at 1 uM measured after 24 hrs by CellTiter-LumiTM assay; assay type: functional, cell-based
786-0 [13] = experiment: Effect on erastin-induced decrease in GSH level in human 786-0 cells at 1 uM incubated for 10 hrs by Total intracellular GSH assay; assay type: functional, cell-based
786-0 [14] = experiment: Cytotoxicity against human 786-0 cells assessed as cell viability incubated for 24 hrs by CellTiter-LumiTM assay; assay type: functional
786-0 [15] = experiment: Inhibition of RSL3 induced lipid-ROS accumulation in human 786-0 cells incubated for 2.5 hrs by C11-BODIPY 581/591 staining coupled with flow cytometry analysis; assay type: functional, cell-based; conditions: dose 0.1-1 µM
786-0 [16] = experiment: Inhibition of RSL3 induced lipid-ROS accumulation in human 786-0 cells assessed as fast elimination at 1 uM measured after 0.25 to 2.5 hrs by C11-BODIPY 581/591 staining coupled with flow cytometry analysis; assay type: functional, cell-based; conditions: time 0.25-2.5 hrs
SK-HEP1 [17] = experiment: Inhibition of RSL3 induced lipid-ROS accumulation in human SK-HEP1 cells at 1 uM incubated for 2.5 hrs by C11-BODIPY 581/591 staining coupled with flow cytometry analysis; assay type: functional, cell-based
SK-HEP1 [18] = experiment: Inhibition of RSL3 induced lipid-ROS accumulation in human SK-HEP1 cells at 1 uM incubated for 0.5 hrs by C11-BODIPY 581/591 staining coupled with flow cytometry analysis; assay type: functional, cell-based
[19] = Antioxidant activity assessed as free radical scavenging activity incubated for 30 mins in dark by DPPH assay relative to control; assay type: functional
[20] = Suppression of autoxidation of liposomes egg ( unknown origin) phosphatidylcholine lipids as substrate at 0.1 to 2.5 uM incubated for 5 min by C11-BODIPY 581/591 dye based fluorescent assay; assay type: functional; conditions: dose 0.1-2.5 µM
786-0 [21] = experiment: Effect on GPX4 expression in human 786-0 cells at 1 uM incubated for 2.5 hrs by Western blot analysis; assay type: functional, cell-based
786-0 [22] = experiment: Effect on IRP1 expression in human 786-0 cells at 1 uM incubated for 2.5 hrs by western blot analysis; assay type: functional, cell-based
786-0 [23] = experiment: Effect on ACSL4 expression in human 786-0 cells at 1 uM incubated for 2.5 hrs by Western blot analysis; assay type: functional, cell-based
786-0 [24] = experiment: Effect on SLC7A11 expression in human 786-0 cells at 1 uM incubated for 2.5 hrs by Western blot analysis; assay type: functional, cell-based
786-0 [25] = experiment: Effect on TFRC expression in human 786-0 cells at 1 uM incubated for 2.5 hrs by Western blot analysis; assay type: functional, cell-based
786-0 [26] = experiment: Effect on FTH1 expression in human 786-0 cells at 1 uM incubated for 2.5 hrs by western blot analysis; assay type: functional, cell-based
786-0 [27] = experiment: Effect on FTL expression in human 786-0 cells at 1 uM incubated for 2.5 hrs by western blot analysis; assay type: functional, cell-based
786-0 [28] = experiment: Effect on TFRC expression in human 786-0 cells in presence of 0.25 uM RSL3 at 1 uM incubated for 2.5 hrs by Western blot analysis; assay type: functional, cell-based
786-0 [29] = experiment: Effect on IRP1 expression in human 786-0 cells in presence of 0.25 uM RSL3 at 1 uM incubated for 2.5 hrs by Western blot analysis; assay type: functional, cell-based
786-0 [30] = experiment: Effect on FTH1 expression in human 786-0 cells in presence of 0.25 uM RSL3 at 1 uM incubated for 2.5 hrs by Western blot analysis; assay type: functional, cell-based
786-0 [31] = experiment: Effect on FTL expression in human 786-0 cells in presence of 0.25 uM RSL3 at 1 uM incubated for 2.5 hrs by Western blot analysis; assay type: functional, cell-based

EC50 (786-0 [1]): 120 nM
SMILES: COc1cccc(C2N(c3ccccc3)N=C(C(C)=O)N2c2ccc(N(C)C)cc2)c1OCc1cccc(Br)c1 (centres undefined)
Activity (786-0 [2]): Active

EC50 (786-0 [1]): 140 nM
SMILES: COc1cccc(C2N(c3ccccc3)N=C(C(C)=O)N2c2ccc(N(C)C)cc2)c1OCc1ccc(F)cc1 (centres undefined)
Activity (786-0 [2]): Active

EC50 (786-0 [1]): 150 nM
SMILES: CC(=O)C1=NN(c2ccccc2)C(c2cc(C)c(OCc3ccc(Cl)cc3Cl)c(C)c2)N1c1ccc(N(C)C)cc1 (centres undefined)

EC50 (786-0 [1]): 80 nM
SMILES: COc1cccc(C2N(c3ccccc3)N=C(C(C)=O)N2c2ccc(N(C)C)cc2)c1OCc1ccc(C(F)(F)F)cc1 (centres undefined)
Activity (786-0 [2]): Active

EC50 (786-0 [1]): 170 nM
SMILES: COc1cc(COc2c(OC)cccc2C2N(c3ccccc3)N=C(C(C)=O)N2c2ccc(N(C)C)cc2)ccc1F (centres undefined)

EC50 (786-0 [1]): 330 nM
SMILES: COc1cccc(C2N(c3ccccc3)N=C(C(C)=O)N2c2ccc(N(C)C)cc2)c1OCc1ccc(F)c(Cl)c1 (centres undefined)

EC50 (786-0 [1]): 70 nM | EC50 (786-0 [3]): 91 nM
SMILES: COC(=O)c1ccc(COc2c(OC)cccc2C2N(c3ccccc3)N=C(C(C)=O)N2c2ccc(N(C)C)cc2)cc1 (centres undefined)
Activity (HT-1080): Active | EC50 [4]: 52 nM | EC50 [5]: 171 nM | EC50 [6]: 317 nM | EC50 [7]: 128 nM | EC50 [8]: 635 nM | inhibition (786-0 [9]): inactive | inhibition (786-0 [10]): inactive | Activity (786-0 [11]): inactive | inhibition (786-0 [12]): Active | Activity (786-0 [13]): inactive | CC50 (786-0 [14]): > 40000 nM | inhibition (786-0 [15]): Dose-dependent-effect | inhibition (786-0 [16]): Active; Eliminated As Fast As Fer-1 | inhibition (SK-HEP1 [17]): Active | inhibition (SK-HEP1 [18]): Active | Activity [19]: Active | Activity [20]: Dose-dependent-effect | Activity (786-0 [21]): inactive | Activity (786-0 [22]): inactive | Activity (786-0 [23]): inactive | Activity (786-0 [24]): inactive | Activity (786-0 [25]): inactive | Activity (786-0 [26]): inactive | Activity (786-0 [27]): inactive | Activity (786-0 [2]): Active | Activity (786-0 [28]): inactive | Activity (786-0 [29]): inactive | Activity (786-0 [30]): inactive | Activity (786-0 [31]): inactive

EC50 (786-0 [1]): 680 nM
SMILES: CC(=O)C1=NN(c2ccccc2)C(c2cc(C)ccc2OCc2ccc(Cl)cc2Cl)N1c1ccc(N(C)C)cc1 (centres undefined)
Activity (786-0 [2]): Active

EC50 (786-0 [1]): 120 nM
SMILES: COc1cccc(C2N(c3ccccc3)N=C(C(C)=O)N2c2ccc(N(C)C)cc2)c1OCc1c(F)cccc1F (centres undefined)
Activity (786-0 [2]): Active

EC50 (786-0 [1]): 390 nM
SMILES: CC(=O)C1=NN(c2ccccc2)C(c2ccccc2OCc2ccc(Cl)cc2Cl)N1c1ccc(N(C)C)cc1 (centres undefined)
Activity (786-0 [2]): Active

EC50 (786-0 [1]): 190 nM
SMILES: COc1cccc(C2N(c3ccccc3)N=C(C(C)=O)N2c2ccc(N(C)C)cc2)c1OCc1cccc2ccccc12 (centres undefined)
Activity (786-0 [2]): Active

EC50 (786-0 [1]): 150 nM
SMILES: COc1cccc(C2N(c3ccccc3)N=C(C(C)=O)N2c2ccc(N(C)C)cc2)c1OCc1c(C)cccc1C (centres undefined)
Activity (786-0 [2]): Active

EC50 (786-0 [1]): 150 nM
SMILES: COc1cccc(COc2c(OC)cccc2C2N(c3ccccc3)N=C(C(C)=O)N2c2ccc(N(C)C)cc2)c1 (centres undefined)
Activity (786-0 [2]): Active

EC50 (786-0 [1]): 3710 nM
SMILES: COc1cccc(C2N(c3ccccc3)N=C(C(C)=O)N2c2ccc(N(C)C)cc2)c1OCc1cc(Cl)cc(Cl)c1 (centres undefined)
Activity (786-0 [2]): Active

EC50 (786-0 [1]): 1230 nM
SMILES: CC(=O)C1=NN(c2ccccc2)C(c2cccc(C)c2OCc2ccc(Cl)cc2Cl)N1c1ccc(N(C)C)cc1 (centres undefined)
Activity (786-0 [2]): Active

EC50 (786-0 [1]): 150 nM
SMILES: COc1cccc(C2N(c3ccccc3)N=C(C(C)=O)N2c2ccc(N(C)C)cc2)c1OCc1ccccc1Cl (centres undefined)
Activity (786-0 [2]): Active
